biological target: T1, Recombinant full length human OGA enzyme (Homo sapiens, UniProt O60502); assay: OGA Enzyme Inhibition Biochemical Assay; conditions: 1 nM OGA, 100 μM 4-MUGlcNAc (Km), pH 6.4, 90 minutes at room temperature, 10-point dose-response starting from 20 μM
T1 construct: Recombinant full length human OGA enzyme; purchased Origene
T1 sequence (O60502 1-916): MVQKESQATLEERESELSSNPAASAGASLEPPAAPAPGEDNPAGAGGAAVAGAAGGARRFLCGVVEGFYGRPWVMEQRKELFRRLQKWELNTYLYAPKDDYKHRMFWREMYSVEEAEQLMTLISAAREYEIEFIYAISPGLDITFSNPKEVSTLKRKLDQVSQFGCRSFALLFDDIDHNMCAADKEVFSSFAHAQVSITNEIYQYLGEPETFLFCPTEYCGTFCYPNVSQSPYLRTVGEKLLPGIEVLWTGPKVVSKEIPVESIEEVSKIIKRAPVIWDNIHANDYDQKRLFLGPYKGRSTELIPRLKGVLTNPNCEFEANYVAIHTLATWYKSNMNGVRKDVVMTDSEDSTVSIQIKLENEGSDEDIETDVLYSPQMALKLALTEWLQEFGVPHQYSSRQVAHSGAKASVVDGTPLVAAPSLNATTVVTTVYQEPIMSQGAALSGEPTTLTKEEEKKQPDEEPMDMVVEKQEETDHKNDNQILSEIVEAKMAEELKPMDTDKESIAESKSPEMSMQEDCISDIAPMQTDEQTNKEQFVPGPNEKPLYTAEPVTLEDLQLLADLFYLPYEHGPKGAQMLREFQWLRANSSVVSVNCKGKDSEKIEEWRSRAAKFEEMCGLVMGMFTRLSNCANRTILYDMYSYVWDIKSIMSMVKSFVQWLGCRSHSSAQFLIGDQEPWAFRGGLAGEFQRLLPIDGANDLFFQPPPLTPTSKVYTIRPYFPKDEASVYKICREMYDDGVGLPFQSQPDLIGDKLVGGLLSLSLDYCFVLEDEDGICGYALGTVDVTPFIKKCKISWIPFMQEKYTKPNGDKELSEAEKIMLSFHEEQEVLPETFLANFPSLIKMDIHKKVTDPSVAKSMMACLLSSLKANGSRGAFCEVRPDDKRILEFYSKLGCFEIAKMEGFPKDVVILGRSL
Method: OGA Enzyme Inhibition Biochemical Assay
Recombinant full length human OGA enzyme was purchased from Origene. 4-MUGlCNAc substrate was purchased from Sigma. All other reagents were purchased from Sigma or Fisher. Assay buffer consists of the Mcllvaine buffer system, pH 6.4 (0.2M Na2HPO4 mixed with 0.1M citric acid) and 0.01% BSA. Reactions consist of 1 nM OGA, 100 μM 4-MUGlcNAc (Km), and compound in a final volume of 10 μl. Reactions were incubated for 90 minutes at room temperature and quenched with […] of 3M glycine, pH 10 and read on a Perkin Elmer Envision plate reader (Ex: 355 nm/Em: 460 nm). Compounds were tested with a 10-point dose-response starting from 20 μM with a 4-fold dilution. Data was fit using GraphPad Prism using a 4-parameter fit with variable slope.

SMILES | IC50 [µM]
COc1cc(NCC2CN(Cc3cnc(NC(C)=O)s3)C2)ccn1 [Example 2-25, N-(5-((3-(((2-methoxypyridin-4-yl)amino)methyl)azetidin-1-yl)methyl)thiazol-2-yl)acetamide] | 0.61
CC(=O)Nc1ncc(CN2CC(Cc3ccccc3)C2)s1 [Example 4-2, N-(5-((3-benzylazetidin-1-yl)methyl)thiazol-2-yl)acetamide] | 0.58
CC(=O)Nc1ncc(CN2C[C@H](Oc3ccc(C#N)cn3)[C@H]2C)s1 [Example 2-32, N-(5-(((2R,3S)-3-((5-cyanopyridin-2-yl)oxy)-2-methylazetidin-1-yl)methyl)thiazol-2-yl)acetamide] | 0.98

Now from value to compound:

IC50 [µM] | SMILES
0.48 | CC(=O)Nc1ncc(CN2CC(COc3cc(C)nc(C)c3)C2)s1 [Example 2-20, N-(5-((3-(((2,6-dimethylpyridin-4-yl)oxy)methyl)azetidin-1-yl)methyl)thiazol-2-yl)acetamide]
0.21 | COc1cc(O[C@H]2CN(Cc3cnc(NC(C)=O)s3)[C@@H]2C)ccn1 [Example 2-7, N-(5-(((2R,3S)-3-((2-methoxypyridin-4-yl)oxy)-2-methylazetidin-1-yl)methyl)thiazol-2-yl)acetamide]
0.57 | CC(=O)Nc1ncc(CN2C[C@@H](Nc3ccc(C#N)cn3)[C@H]2C)s1 [Example 2-18, N-(5-(((2R,3R)-3-((5-cyanopyridin-2-yl)amino)-2-methylazetidin-1-yl)methyl)thiazol-2-yl)acetamide]
0.45 | CC(=O)Nc1ncc(CN2C[C@@H](Oc3ccc(F)cn3)[C@H]2C)s1 [Example 2-8, N-(5-(((2R,3R)-3-((5-fluoropyridin-2-yl)oxy)-2-methylazetidin-1-yl)methyl)thiazol-2-yl)acetamide]

Source: patent US12421224B2 (BIOGEN MA INC., priority 2019, dated 2025)
